Measured values published in PMC8480782, “Efficient Dimerization Disruption of Leishmania infantum Trypanothione Reductase by Triazole-phenyl-thiazoles” (Journal of Medicinal Chemistry, 2021).
Values joined by “and” are separate entries in the source; they are usually repeats but may differ in a detail not shown here. Equal values may be shown once. Read-outs that look alike come from different tables or passages of the source.

Legend:
[1] = biological target: T1, LiTryR (Leishmania infantum, UniProt A4HSF7); experiment: biochemical; type: biochemical; settings: for IC50: LiTryR, 1 μM TS2, maximum assayed 75 μM, read-out: IC50^act, TryR oxidoreductase activity
T1 construct: HIS (N); made in house; host or cells: E. coli BL21 (DE3) Rossetta
T1 sequence (A4HSF7 1-491): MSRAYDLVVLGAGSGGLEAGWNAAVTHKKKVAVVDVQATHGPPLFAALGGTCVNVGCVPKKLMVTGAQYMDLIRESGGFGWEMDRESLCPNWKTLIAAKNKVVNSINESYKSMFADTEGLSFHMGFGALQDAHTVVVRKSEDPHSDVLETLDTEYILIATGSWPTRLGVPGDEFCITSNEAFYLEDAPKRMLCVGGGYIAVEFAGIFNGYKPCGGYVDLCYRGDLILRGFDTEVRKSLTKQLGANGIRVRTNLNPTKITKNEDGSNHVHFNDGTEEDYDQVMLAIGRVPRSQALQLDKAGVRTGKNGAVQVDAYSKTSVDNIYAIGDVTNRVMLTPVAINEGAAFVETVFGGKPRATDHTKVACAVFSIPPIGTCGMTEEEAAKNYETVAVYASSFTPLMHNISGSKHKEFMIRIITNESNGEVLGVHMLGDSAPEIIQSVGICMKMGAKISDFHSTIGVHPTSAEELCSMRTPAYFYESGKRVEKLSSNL
In short: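 Recombinant HIS- or HIS-FLAG-tagged LiTryR (7 nM, E. coli-expressed) in DTNB-coupled assay at 26 °C, pH 7.5 HEPES with NADP+ 30 μM, DTNB 25 μM, NADPH 150 μM, TS2 1 μM, 1.75% DMSO. Reaction started with NADPH/TS2; TNB formation followed at 412 nm, data fitted by nonlinear regression.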

[2] = tested on: L. infantum axenic amastigotes; experiment: Leishmanicidal activity on axenic amastigotes (PI exclusion, flow cytometry); type: cell-based, Leishmania infantum; settings: for SIa (ratio of EC50 against human cells to EC50 against amastigotes): HepG2 / axenic amastigotes; for EC50: Leishmania infantum, read-out: EC50 amastigotes
In short: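 Leishmania infantum axenic amastigotes (MCAN/ES/89/IPZ229/1/89) were cultured at 37 °C in M199 medium, pH 5.4, with 10% heat-inactivated FCS, organic acids, MES, hemin and gentamicine. After compound exposure, parasites were gated by FSC/SSC and live versus dead cells were distinguished by propidium iodide exclusion using flow cytometry. EC50 values came from nonlinear regression in GraFit 6, with triplicates in at least three independent experiments.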

[3] = tested on: HepG2 cells; experiment: Cellular toxicity, crystal violet assay; type: cell-based; settings: Homo sapiens, read-out: EC50 HepG2
In short: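 HepG2 cells in DMEM with 10% FCS were exposed to compounds at 10^5 cells/mL for 24 h at 37 °C and 5% CO2. Remaining cells were stained with crystal violet, solubilized in 1% SDS and read at 570 nm. EC50 was obtained by nonlinear regression from triplicates in at least three independent experiments.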

[4] = axenic amastigotes, 24 h at 37 °C
[5] = HepG2, 24 h, crystal violet method

Q: Which results are given for `NCCCCc1cn(-c2ccc(-c3nc(CCc4ccc5oc6ccccc6c5c4)cs3)c(OCCN3CCNC3=O)c2)nn1.O=C(O)C(F)(F)F` [12s]?
A: IC50 [1]: 6.6 ± 1.9 µM; SIa (ratio of EC50 against human cells to EC50 against amastigotes) [2]: ND/>1.1; EC50 ([2]; 24 h): 68.8 ± 3.2 µM; EC50 ([3]; HepG2, 24 h): > 75 µM

Q: With `NCCCCc1cn(-c2ccc(-c3nc(CCc4ccc(-c5ccccc5)cc4)cs3)c(OCCN3CCNC3=O)c2)nn1.O=C(O)C(F)(F)F` [12c, 1-(2-(2-(4-(2-([1,1′-Biphenyl]-4-yl)ethyl)thiazol-2-yl)-5-(4-(4-ammoniumbutyl)-1H-1,2,3-triazol-1-yl)phenoxy)ethyl)imidazolidin-2-one 2,2,2-Trifluoroacetate] as the molecule, how does the IC50 [1] read?
A: 10.9 ± 1.8 µM

Q: And the “SIa (ratio of EC50 against human cells to EC50 against amastigotes)” value [2]?
A: 3.7

Q: And the EC50 [2, 4]?
A: 11.6 ± 0.8 µM

Q: And the EC50 [3, 5]?
A: 43.1 ± 2.6 µM

Q: Which IC50 [1] does the source give for `NCCNCc1nccn1-c1ccc(-c2nc(CCc3ccc4ccccc4c3)cs2)c(OCCN2CCNC2=O)c1` [compound 2, reference compound] here?
A: 5.1 ± 0.4 µM

Q: What about the “SIa (ratio of EC50 against human cells to EC50 against amastigotes)” value [2] of the same molecule?
A: 2.1/2.1

Q: What about the EC50 [2, 4] of the same molecule?
A: 12.8 ± 1.3 µM

Q: What about the EC50 [3, 5] of the same molecule?
A: 27.1 ± 2.4 µM

Q: For `NCCCc1cn(-c2ccc(-c3nc(CCc4ccc(-c5ccccc5)cc4)cs3)c(OCCN3CCNC3=O)c2)nn1.O=C(O)C(F)(F)F` [12i], which IC50 [1] is on record?
A: 19.7 ± 3.8 µM

Q: What about the “SIa (ratio of EC50 against human cells to EC50 against amastigotes)” value [2] of the same molecule?
A: 11.6

Q: And the EC50 [2, 4]?
A: 5.2 ± 0.3 µM

Q: What about the EC50 [3, 5] of the same molecule?
A: 60.4 ± 3 µM

Q: For `NCCCCc1cn(-c2ccc(-c3nc(-c4ccccc4)c(-c4ccccc4)s3)c(OCCN3CCNC3=O)c2)nn1.O=C(O)C(F)(F)F` [19a, 1-(2-(5-(4-(4-Ammoniobutyl)-1H-1,2,3-triazol-1-yl)-2-(4,5-diphenylthiazol-2-yl)phenoxy)ethyl)imidazolidin-2-one 2,2,2-Trifluoroacetate], which IC50 [1] is on record?
A: 4.3 ± 1 µM

Q: What about the “SIa (ratio of EC50 against human cells to EC50 against amastigotes)” value [2] of the same molecule?
A: 1.7

Q: What about the EC50 [2, 4] of the same molecule?
A: 15.6 ± 3 µM

Q: And the EC50 [3, 5]?
A: 26.5 ± 4.1 µM

Q: `NCCCCc1cn(-c2ccc(-c3nc(CCc4ccc5ccccc5c4)cs3)c(OCCN3CCNC3=O)c2)nn1.O=C(O)C(F)(F)F` [12b, 1-(2-(5-(4-(4-Ammoniumbutyl)-1H-1,2,3-triazol-1-yl)-2-(4-(2-(naphthalen-2-yl)ethyl)thiazol-2-yl)phenoxy)ethyl)imidazolidin-2-one 2,2,2-Trifluoroacetate] was tested. Which IC50 [1] did it give?
A: 5.9 ± 1.1 µM

Q: What about the “SIa (ratio of EC50 against human cells to EC50 against amastigotes)” value [2] of the same molecule?
A: 2.2

Q: And the EC50 [2, 4]?
A: 15.3 ± 1.7 µM

Q: What about the EC50 [3, 5] of the same molecule?
A: 33.3 ± 2.7 µM

Q: What does the source list for `NCCCCc1cn(-c2ccc(-c3nc(CCc4ccc5c(c4)CCCN5)cs3)c(OCCN3CCNC3=O)c2)nn1.O=C(O)C(F)(F)F.O=C(O)C(F)(F)F` [12q]?
A: IC50 [1]: 6.9 ± 2.1 µM; SIa (ratio of EC50 against human cells to EC50 against amastigotes) [2]: ND/1.6; EC50 [2, 4]: 27 ± 2.8 µM; EC50 [3, 5]: 43.3 ± 1 µM

Q: How did the IC50 [1] turn out when `NCCCCc1cn(-c2ccc(-c3nc(-c4ccccc4)cs3)c(OCCN3CCNC3=O)c2)nn1.O=C(O)C(F)(F)F` [12n] was run?
A: 11.2 ± 0.2 µM

Q: And the EC50 [2, 4]?
A: 11.5 ± 0.3 µM

Q: What about the EC50 [3, 5] of the same molecule?
A: 16.4 ± 2.3 µM

Q: For `NCCCCc1cn(-c2ccc(-c3nc(-c4cccc(-c5csc(-c6ccc(-n7cc(CCCCN)nn7)cc6OCCN6CCNC6=O)n5)c4)cs3)c(OCCN3CCNC3=O)c2)nn1.O=C(O)C(F)(F)F.O=C(O)C(F)(F)F` [compound 22, 1,1′-((((1,3-Phenylenebis(thiazole-4,2-diyl))bis(5-(4-(4-ammoniobutyl)-1H-1,2,3-triazol-1-yl)-2,1-phenylene))bis(oxy))bis(ethane-2,1-diyl))bis(imidazolidin-2-one)bis(2,2,2-trifluoroacetate)], which IC50 [1] is on record?
A: 0.4 ± 0.03 µM

Q: And the “fold more potent than 12n, IC50^act” value ([1]; versus monomeric 12n)?
A: 28 fold

Q: What about the “SIa (ratio of EC50 against human cells to EC50 against amastigotes)” value [2] of the same molecule?
A: 6.2

Q: And the EC50 [2, 4]?
A: 4.9 ± 0.2 µM

Q: And the EC50 [3, 5]?
A: 30.5 ± 4.1 µM

Q: `NCCCCc1cn(-c2ccc(-c3nc(CCc4ccc5c(c4)CCO5)cs3)c(OCCN3CCNC3=O)c2)nn1.O=C(O)C(F)(F)F` [12r] was tested. Which IC50 [1] did it give?
A: 11.9 ± 0.6 µM

Q: What about the “SIa (ratio of EC50 against human cells to EC50 against amastigotes)” value [2] of the same molecule?
A: 1.3

Q: And the EC50 [2, 4]?
A: 22.3 ± 0.6 µM

Q: What about the EC50 [3, 5] of the same molecule?
A: 29.4 ± 0.7 µM

Q: How did the IC50 [1] turn out when `NCCNCc1nccn1-c1ccc(-c2nc(CCc3ccc(-c4ccccc4)cc3)cs2)c(OCCN2CCNC2=O)c1` [compound 3, reference compound] was run?
A: 8.6 ± 1.4 µM

Q: What about the “SIa (ratio of EC50 against human cells to EC50 against amastigotes)” value [2] of the same molecule?
A: 2.7 and 2.7/2.7

Q: And the EC50 [2, 4]?
A: 5.3 ± 0.2 µM

Q: And the EC50 [3, 5]?
A: 14.2 ± 0.9 µM

Q: With `NCCCCc1cn(-c2ccc(-c3nc(-c4ccc(Oc5ccccc5)cc4)c(-c4ccccc4)s3)c(OCCN3CCNC3=O)c2)nn1.O=C(O)C(F)(F)F` [19c, 1-(2-(5-(4-(4-Ammoniobutyl)-1H-1,2,3-triazol-1-yl)-2-(4-([4-phenyloxyphenyl]-1-yl)-5-phenylthiazol-2-yl)phenoxy)ethyl)imidazolidin-2-one 2,2,2-Trifluoroacetate] as the molecule, how does the IC50 [1] read?
A: 16.9 ± 2.7 µM

Q: And the “SIa (ratio of EC50 against human cells to EC50 against amastigotes)” value [2]?
A: ND/≥3.3

Q: What about the EC50 [2, 4] of the same molecule?
A: 22.6 ± 5.7 µM

Q: And the EC50 [3, 5]?
A: ≥ 75 µM
